From patent US20250333388A1, “OXADIAZOLONE COMPOUNDS AND HERBICIDAL COMPOSITIONS AND USES THEREOF” (SHANDONG BINNONG TECHNOLOGY CO., LTD., priority 2023, published 2025)

Key:
Format in all cases: in vivo
abutilon = assay: Test of herbicidal activity, post-seedling stem and leaf spray in greenhouse, abutilon; conditions: for herbicidal activity against abutilon compared with Control compounds A, B and C: at different doses, summary of Table 5; for Abutilon (%) control effect: post-seedling stem and leaf spray
Protocol: (§1) Seeds of broadleaf weeds (abutilon, Solanum nigrum) or gramineous weeds (crabgrass, barnyard grass) were sown into nutrient soil in plastic cups, respectively, and then covered with soil, compacted, watered, and further cultivated in a greenhouse by conventional methods. The stems and leaves of the weeds were sprayed when the weeds reached the 2- to 3-leaf stage. The test compounds of the present application were dissolved in acetone respectively, followed by addition of Tween 80. The solution was diluted with a certain amount of water to a certain solubility, and then sprayed onto the plants using a spray tower. The test was repeated three times. After drying naturally in the shade, the plants were put in a greenhouse and managed according to conventional methods. The growth and development of weeds were observed, and the control effect of the test agent on weeds was checked visually periodically, which was expressed by 0-100%, with “0” representing no control effect, and “100%” representing complete killing or severe inhibition.

Solanum nigrum = assay: Test of herbicidal activity, post-seedling stem and leaf spray in greenhouse, Solanum nigrum; conditions: for herbicidal activity against Solamum nigrum compared with Control compounds A, B and C: at different doses, summary of Table 5; for Solanum nigrum (%) control effect: post-seedling stem and leaf spray
Protocol: as §1

crabgrass = assay: Test of herbicidal activity, post-seedling stem and leaf spray in greenhouse, crabgrass; conditions: for herbicidal activity against crabgrass compared with Control compounds A, B and C: at different doses, summary of Table 5; for Crabgrass (%) control effect: post-seedling stem and leaf spray
Protocol: as §1

barnyard grass = assay: Test of herbicidal activity, post-seedling stem and leaf spray in greenhouse, barnyard grass; conditions: for herbicidal activity against barnyard grass compared with Control compounds A, B and C: at different doses, summary of Table 5; for Barnyard grass (%) control effect: post-seedling stem and leaf spray
Protocol: as §1

corn = assay: Safety testing on corn, stem and leaf spray in greenhouse; conditions: for Corn (%) safety (crop damage): stem and leaf spray; for inhibitory effect on corn (crop safety): at different doses, as compared to Control compounds A, B, and C, summary of Table 6
Protocol: (§2) The seeds of corn and rice were sown into nutrient soil in plastic cups, respectively, then covered with soil, compacted, watered, and further cultivated in a greenhouse by conventional methods. The stems and leaves of the crops were sprayed when the crops reached the 2- to 3-leaf stage. The test compounds of the present application were dissolved in acetone, followed by addition of Tween 80. The solution was then diluted with a certain amount of water to a certain solubility, and sprayed onto the plants using a spray tower. The test was repeated three times. After drying naturally in the shade, the plants were put in a greenhouse and managed according to conventional methods. The growth and development of corn and rice were observed, and the safety of the test agent on corn and rice was checked visually periodically. A safety grading standard was represented by 0-100%, with “O” representing no damage to crops, and “100%” representing complete killing or severe inhibition of crops.

rice = assay: Safety testing on rice, stem and leaf spray in greenhouse; conditions: for Rice (%) safety (crop damage): stem and leaf spray; for inhibitory effect on rice (crop safety): at different doses, as compared to Control compounds A, B, and C, summary of Table 6
Protocol: as §2

[1] = dose 300 g a.i/ha, 0 = no control effect, 100% = complete killing or severe inhibition
[2] = dose 300 g a.i/ha, 0 = no damage to crops, 100% = complete killing or severe inhibition

SMILES	herbicidal activity against abutilon compared with Control compounds A, B and C (abutilon)	Abutilon (%) control effect (abutilon; dose 37.5 g a.i/ha)	Abutilon (%) control effect (abutilon; dose 75 g a.i/ha)	Abutilon (%) control effect (abutilon; dose 150 g a.i/ha)	Abutilon (%) control effect (abutilon; [1])	herbicidal activity against Solamum nigrum compared with Control compounds A, B and C (Solanum nigrum)	Solanum nigrum (%) control effect (Solanum nigrum; dose 37.5 g a.i/ha)	Solanum nigrum (%) control effect (Solanum nigrum; dose 75 g a.i/ha)	Solanum nigrum (%) control effect (Solanum nigrum; dose 150 g a.i/ha)	Solanum nigrum (%) control effect (Solanum nigrum; dose 300 g a.i/ha)	herbicidal activity against crabgrass compared with Control compounds A, B and C (crabgrass)	Crabgrass (%) control effect (crabgrass; dose 37.5 g a.i/ha)	Crabgrass (%) control effect (crabgrass; dose 75 g a.i/ha)	Crabgrass (%) control effect (crabgrass; dose 150 g a.i/ha)	Crabgrass (%) control effect (crabgrass; dose 300 g a.i/ha)	herbicidal activity against barnyard grass compared with Control compounds A, B and C (barnyard grass)	Barnyard grass (%) control effect (barnyard grass; dose 37.5 g a.i/ha)	Barnyard grass (%) control effect (barnyard grass; dose 75 g a.i/ha)	Barnyard grass (%) control effect (barnyard grass; dose 150 g a.i/ha)	Barnyard grass (%) control effect (barnyard grass; dose 300 g a.i/ha)	other results
Cc1nn(Cc2c(S(C)(=O)=O)ccc(C(=O)c3c(C)nn(C)c3OC(=O)c3cn(C)nc3C(F)(F)F)c2Cl)c(=O)o1 [Compound 166]	better herbicidal activities	65%	88%	92%	95%	better herbicidal activities	60%	85%	90%	93%	better herbicidal activities	50%	75%	80%	85%	better herbicidal activities	55%	80%	85%	90%	
Cc1nn(Cc2c(S(C)(=O)=O)ccc(C(=O)c3c(C)nn(C)c3OC(=O)c3cnn(C)c3Cl)c2Cl)c(=O)o1 [Compound 218]	better herbicidal activities	55%	80%	90%	95%	better herbicidal activities	50%	70%	90%	95%	better herbicidal activities	45%	65%	80%	85%	better herbicidal activities	50%	70%	85%	90%	
Cc1nn(Cc2c(S(C)(=O)=O)ccc(C(=O)c3c(C)nn(C)c3OC(=O)c3c(C(F)(F)F)nn(C)c3Cl)c2Cl)c(=O)o1 [Compound 204]	better herbicidal activities	55%	80%	90%	98%	better herbicidal activities	52%	70%	90%	97%	better herbicidal activities	45%	64%	80%	88%	better herbicidal activities	50%	70%	85%	90%	
CS(=O)(=O)c1ccc(C(=O)C2C(=O)CCCC2=O)c(Cl)c1 [Control compound A, reference compound]		50%	80%	98%	100%		50%	70%	90%	95%		5%	25%	45%	50%		10%	30%	50%	60%	Corn (%) safety (crop damage) (corn; dose 37.5 g a.i/ha): 0%; Corn (%) safety (crop damage) (corn; dose 75 g a.i/ha): 0%; Corn (%) safety (crop damage) (corn; dose 150 g a.i/ha): 0%; Corn (%) safety (crop damage) (corn; [2]): 5%; Rice (%) safety (crop damage) (rice; dose 37.5 g a.i/ha): 10%; Rice (%) safety (crop damage) (rice; dose 75 g a.i/ha): 25%; Rice (%) safety (crop damage) (rice; dose 150 g a.i/ha): 45%; Rice (%) safety (crop damage) (rice; dose 300 g a.i/ha): 60%
Cc1nn(Cc2c(S(C)(=O)=O)ccc(C(=O)C3C(=O)CCCC3=O)c2Cl)c(=O)o1 [Compound 1]	better herbicidal activities	65%	90%	98%	100%	better herbicidal activities	60%	90%	95%	100%	better herbicidal activities	50%	75%	85%	95%	better herbicidal activities	55%	80%	90%	98%	
Cc1nn(Cc2c(S(=O)(=O)C(C)C)ccc(C(=O)c3c(C)nn(C)c3O)c2Cl)c(=O)o1 [Compound 100, 1,3-dimethyl-4-{2-chloro-3-[(5-methyl-2-oxo-1,3,4-oxadiazol-3 (2H)yl)methyl]-4-isopropylsulfonylbenzoyl}-5-hydroxypyrazole]																					inhibitory effect on corn (crop safety) (corn): no significant inhibitory effect; Corn (%) safety (crop damage) (corn; dose 37.5 g a.i/ha): 0%; Corn (%) safety (crop damage) (corn; dose 75 g a.i/ha): 0%; Corn (%) safety (crop damage) (corn; dose 150 g a.i/ha): 0%; Corn (%) safety (crop damage) (corn; [2]): 0%; inhibitory effect on rice (crop safety) (rice): no significant inhibitory effect; Rice (%) safety (crop damage) (rice; dose 37.5 g a.i/ha): 0%; Rice (%) safety (crop damage) (rice; dose 75 g a.i/ha): 0%; Rice (%) safety (crop damage) (rice; dose 150 g a.i/ha): 0%; Rice (%) safety (crop damage) (rice; dose 300 g a.i/ha): 2%
CCS(=O)(=O)c1ccc(C(=O)C2C(=O)CCCC2=O)c(Cl)c1Cn1nc(C)oc1=O [Compound 6]																					inhibitory effect on corn (crop safety) (corn): no significant inhibitory effect; Corn (%) safety (crop damage) (corn; dose 37.5 g a.i/ha): 0%; Corn (%) safety (crop damage) (corn; dose 75 g a.i/ha): 0%; Corn (%) safety (crop damage) (corn; dose 150 g a.i/ha): 0%; Corn (%) safety (crop damage) (corn; [2]): 5%; inhibitory effect on rice (crop safety) (rice): no significant inhibitory effect; Rice (%) safety (crop damage) (rice; dose 37.5 g a.i/ha): 0%; Rice (%) safety (crop damage) (rice; dose 75 g a.i/ha): 0%; Rice (%) safety (crop damage) (rice; dose 150 g a.i/ha): 5%; Rice (%) safety (crop damage) (rice; dose 300 g a.i/ha): 10%
CCOC1=C(C(=O)c2ccc(S(C)(=O)=O)c(Cn3nc(C)oc3=O)c2Cl)C(=O)CCC1 [Compound 32]	better herbicidal activities	65%	90%	98%	100%	better herbicidal activities	60%	90%	95%	100%	better herbicidal activities	50%	75%	85%	90%	better herbicidal activities	55%	80%	90%	95%	
Cc1nn(Cc2c(S(C)(=O)=O)ccc(C(=O)c3c(C)nn(C)c3O)c2Cl)c(=O)o1 [Compound 58]																					inhibitory effect on corn (crop safety) (corn): no significant inhibitory effect; Corn (%) safety (crop damage) (corn; dose 37.5 g a.i/ha): 0%; Corn (%) safety (crop damage) (corn; dose 75 g a.i/ha): 0%; Corn (%) safety (crop damage) (corn; dose 150 g a.i/ha): 0%; Corn (%) safety (crop damage) (corn; [2]): 0%; inhibitory effect on rice (crop safety) (rice): no significant inhibitory effect; Rice (%) safety (crop damage) (rice; dose 37.5 g a.i/ha): 0%; Rice (%) safety (crop damage) (rice; dose 75 g a.i/ha): 0%; Rice (%) safety (crop damage) (rice; dose 150 g a.i/ha): 0%; Rice (%) safety (crop damage) (rice; dose 300 g a.i/ha): 5%
